{"source": "patent US20230365624A1", "about": "“NOVEL ANGIOTENSIN I-CONVERTING ENZYME (ACE) INHIBITORY PEPTIDES” (Thai Union Group Public Company Limited, priority 2020, published 2023)", "test_system": "GI enzymes (pepsin and pancreatin)", "assay": "In vitro gastrointestinal (GI) digestion of synthetic peptides, with ACE inhibitory activity and α-amino group content before and after", "assay_type": "in vitro ADME", "settings": "pepsin pH 2.0, 37° C., 1 h, then pancreatin pH 7.5, 37° C., 2 h (FIG. 6)", "procedure": "It is necessary for ACE inhibitory peptides to retain its activity in GI tract so that it can be absorbed into the bloodstream, where the peptide inhibitors can show their hypotensive effect. In vitro gastrointestinal digestion provides an easy process to imitate antihypertensive activity of peptides under oral administration. […] In vitro GI digestion was simulated according to the method of Zhu et al. (2008) with some modifications. One milligram of each sample was dissolved in 0.5 ml of 0.1 M KCl-HCl, and the pH was adjusted to 2.0 with 6 M HCl. Pepsin (1% enzyme/substrate, w/w) was added, and the mixture was incubated in a shaking water bath at 37° C. for 1 h, and the pH was then adjusted to pH 7.5. […] ACE inhibitory activity and α-amino groups content of the peptides before and after in vitro GI digestion were measured. […]\nACE inhibitory activity assay was carried out according to the methods of Cushman and Cheung (1971) and Wu et al. (2002) with some modifications. […] Absorbance was measured at 228 nm. The percentage of ACE inhibition was calculated as follows: […]\nContent of α-amino groups was performed according to Adler-Nissen (1979). […] The mixture was left at room temperature for 30 min before an absorbance at 420 nm was monitored. […] The content of α-amino groups was expressed as leucine equivalents.", "note": "No end group written: not given here."}
{"sequence": "VSVVQYSR [VSVVQYSR]", "values": [{"measurement": "Decrease of ACE inhibitory activity after GI digestion", "value": "~19", "unit": "%"}]}
